Experiments:
[1] = In vivo toxicity, chronic daily intraperitoneal injection; parameters: species or system mouse; conditions: 1, 10 and 25 mg/kg daily i.p. for 1 month
Procedure: In order to assess the anti-tumor properties of A41 in vivo, we first would like to make sure of the safety and the absence of major off-target effects of A41. […] In vivo safety has been addressed by monitoring various biological parameters in mice chronically receiving daily intraperitoneal A41 injection (1, 10, and 25 mg/kg) for 1 month. […] We then analyzed pharmacokinetics and tissue distribution of A41 following intraperitoneal injection of A41 (25 mg/kg). A41 rapidly reached its peak plasma concentration (∼15 min, 15.056 ± 0.5 μg/mL), which then declined over 2–3 h (Figure S7). A41 was detected in the liver, heart, and lungs.
Supplementary Fig. 6: In vivo A41 toxicity. (a) Effect of chronic administration of A41 at the indicated concentrations by daily intraperitoneal injections in mice on weight gain glycemia. (b) and (c), Glycemia (b) and plasmatic concentration of transaminases (ALAT and ASAT), albumin, urea, creatinine and total protein in mice after of 1 month of chronic administration of A41 at indicated concentrations (c). N=6-7

MKK6(h) = MKK6(h) (Homo sapiens, UniProt P52564); assay: Kinase Profiler; assay type: biochemical
Procedure: (§1) The kinase profiler was performed by the company Eurofins (Discovery, Panlab and Cerep).

MAP4K4(h) = MAP4K4(h) (Homo sapiens, UniProt O95819); assay: Kinase Profiler; assay type: biochemical
Procedure: as §1

[2] = molecular target: Transporter, Norepinephrine (NET) (Homo sapiens, UniProt P23975); assay: Safety screen; assay type: binding
Procedure: Blood cell counts, kinase profiler, safety screen, bacterial cytotoxicity, Ames, micronucleus assays were performed by the company Eurofins (France).

Potassium Channel [KATP] = Potassium Channel [KATP] (Cricetus cricetus, UniProt Q09427); assay: Safety screen; assay type: binding, hamster
Procedure: (§2) Blood cell counts, kinase profiler, safety screen, bacterial cytotoxicity, Ames, micronucleus assays were performed by the company Eurofins (France). The kinase profiler was performed by the company Eurofins (Discovery, Panlab and Cerep).

NIH/3T3 cell adhesion = assay: Cell adhesion assay (xCELLigence impedance); assay type: cell-based; conditions: 10^-5 M
Procedure: NIH3T3cells (10000/well) were seeded in a 96 well plate microtiter xCELLigence assay plate (E-Plate) (ACEA Biosciences Inc.) and placed on the Real-time xCELLigence Cell Analyzer (Roche Applied Science) platform at 37°C to measure the “cell index” every 5 min for a period of 6 h. The cell index unit is defined as (Rn − Rb)/15. Rn is the cell electrode impedance of the well when it contains cells. Rb is the background impedance of the well with the media alone.
Supplementary Fig. 3: Example of one pharmacophore model used for virtual screening. (a) The pharmacophore model shown was created based on RAC1 (grey) and NSC23766 (orange) interaction. […] (b) Impact of different screening molecules (10^-5 M) on NIH/3T3 cell adhesion (xCELLingence Real-time cellanalysis, Agilent), migration (CYTOO Mobility plates) and proliferation (xCELLingence Real-time cell analysis, Agilent) .The level of RAC activation is determinedby the detection of RAC-GTP (pull-down assay) in NIH/3T3 cell treated with EGF (10 ng/mL) and the differentmolecules and normalize to the level of RAC activity measuredin the presenceof the reference RAC inhibitor EHT1864.
Supplementary Fig. 4: A41 inhibits RAC-dependent cell functions. (a) Representative records of single NIH/3T3 cell migration on micropatterned fibronectin lines (CYTOO Mobility plates) in the absence (Control)and presenceA41 at 10^-5 M (left panel) and corresponding quantification of migration speed (right panel) (scale bar: 20µm). […] (b) Typical curves showing the cell index representing the adhesion of NIH/3T3 fibroblast (xCELLingence Real-time cell analysis, Agilent) under control condition (Control) and pre-treated with 10 µM A41 or NSC23766 (left panel) and corresponding quantification of cell adhesion speed (right panel). […]

CT26 cells = assay: Colorectal circulating tumor cells model (pulmonary metastasis); assay type: in vivo, mouse; conditions: 25 mg/kg i.p. daily day 0 to 14
Procedure: 7-8 weeks-old BALB/c female mice received an intravenous injection through the caudal vein of the cell suspension (CT26 cells, ATCC® CCL-2638™). The volume needed for implantation was loaded in insulin syringes (2x10^5 cells) in 100 μL of phosphate-buffered saline). The anesthetized mice were placed on a warming blanket and were monitored (breathing) until they wake up.

4T1 tumor cells = assay: Syngeneic breast cancer model; assay type: in vivo, mouse; conditions: BALB/c mice
Procedure: Figure 6 A41 decreases metastasis of TNBC cells in vivo (A) Representative images of luciferase bioluminescence intensities (BLI) in whole body, legs, and ovaries/uterus 4 weeks after resection of MD1-MB-468 Luc tumor in NMRI nude mice not treated (control) and treated with A41 (25 mg/kg/day, intraperitoneally for 4 weeks). (B) Metastasis frequency quantification based on ex vivo BLI measurements in indicated organs from control (black bars) and A41-treated mice 4 weeks after tumor resection (white bars) (N = 10–15 mice; ∗p < 0.05 vs. controls). (C) BLI quantification in legs and ovaries/uterus from control (black squares) and A41-treated (white squares) NMRI nude mice 4 weeks after tumor resection (N = 10–15 mice; ∗p < 0.05 vs. controls). (D) Cumulative proportion of immunocompetent control (red) and A41-treated mice (blue) displaying regrowth of the primary tumor after its resection. (E) Metastasis frequency quantified from ex vivo BLI measurements in leg bones, lungs, kidneys, and ovaries/uterus from immunocompetent control (black bar) and A41-treated (white bar) mice (N = 10 mice; ∗p < 0.05 vs. control). (F) Survival curve of immunocompetent control (red) and A41-treated mice (blue) after primary tumor resection (day 0).
To circumvent this limitation and evaluate if the immune system could affect the anti-metastatic property of A41, we evaluated its effect in a syngeneic model. We injected murine 4T1 tumor cells into the mammary fat pad of immunocompetent BALB/c mice.

TLK1(h) = TLK1(h) (Homo sapiens, UniProt Q9UKI8); assay: Kinase Profiler; assay type: biochemical
Procedure: as §1

IGF-1R(h), activated = IGF-1R(h), activated (Homo sapiens, UniProt P08069); assay: Kinase Profiler; assay type: biochemical
Procedure: as §2

WNK2(h) = WNK2(h) (Homo sapiens, UniProt Q9Y3S1); assay: Kinase Profiler; assay type: biochemical
Procedure: as §1

Sequence of MKK6(h) (P52564 whole entry): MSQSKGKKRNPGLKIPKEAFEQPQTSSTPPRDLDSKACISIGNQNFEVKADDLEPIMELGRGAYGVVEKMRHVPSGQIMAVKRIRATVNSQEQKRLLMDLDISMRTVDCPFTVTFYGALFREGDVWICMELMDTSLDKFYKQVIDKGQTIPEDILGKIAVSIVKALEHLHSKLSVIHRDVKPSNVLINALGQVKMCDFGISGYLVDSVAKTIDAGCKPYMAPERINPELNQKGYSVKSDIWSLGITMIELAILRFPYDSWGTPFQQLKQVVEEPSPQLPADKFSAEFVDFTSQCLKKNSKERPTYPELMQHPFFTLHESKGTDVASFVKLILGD
Sequence of MAP4K4(h) (O95819 whole entry): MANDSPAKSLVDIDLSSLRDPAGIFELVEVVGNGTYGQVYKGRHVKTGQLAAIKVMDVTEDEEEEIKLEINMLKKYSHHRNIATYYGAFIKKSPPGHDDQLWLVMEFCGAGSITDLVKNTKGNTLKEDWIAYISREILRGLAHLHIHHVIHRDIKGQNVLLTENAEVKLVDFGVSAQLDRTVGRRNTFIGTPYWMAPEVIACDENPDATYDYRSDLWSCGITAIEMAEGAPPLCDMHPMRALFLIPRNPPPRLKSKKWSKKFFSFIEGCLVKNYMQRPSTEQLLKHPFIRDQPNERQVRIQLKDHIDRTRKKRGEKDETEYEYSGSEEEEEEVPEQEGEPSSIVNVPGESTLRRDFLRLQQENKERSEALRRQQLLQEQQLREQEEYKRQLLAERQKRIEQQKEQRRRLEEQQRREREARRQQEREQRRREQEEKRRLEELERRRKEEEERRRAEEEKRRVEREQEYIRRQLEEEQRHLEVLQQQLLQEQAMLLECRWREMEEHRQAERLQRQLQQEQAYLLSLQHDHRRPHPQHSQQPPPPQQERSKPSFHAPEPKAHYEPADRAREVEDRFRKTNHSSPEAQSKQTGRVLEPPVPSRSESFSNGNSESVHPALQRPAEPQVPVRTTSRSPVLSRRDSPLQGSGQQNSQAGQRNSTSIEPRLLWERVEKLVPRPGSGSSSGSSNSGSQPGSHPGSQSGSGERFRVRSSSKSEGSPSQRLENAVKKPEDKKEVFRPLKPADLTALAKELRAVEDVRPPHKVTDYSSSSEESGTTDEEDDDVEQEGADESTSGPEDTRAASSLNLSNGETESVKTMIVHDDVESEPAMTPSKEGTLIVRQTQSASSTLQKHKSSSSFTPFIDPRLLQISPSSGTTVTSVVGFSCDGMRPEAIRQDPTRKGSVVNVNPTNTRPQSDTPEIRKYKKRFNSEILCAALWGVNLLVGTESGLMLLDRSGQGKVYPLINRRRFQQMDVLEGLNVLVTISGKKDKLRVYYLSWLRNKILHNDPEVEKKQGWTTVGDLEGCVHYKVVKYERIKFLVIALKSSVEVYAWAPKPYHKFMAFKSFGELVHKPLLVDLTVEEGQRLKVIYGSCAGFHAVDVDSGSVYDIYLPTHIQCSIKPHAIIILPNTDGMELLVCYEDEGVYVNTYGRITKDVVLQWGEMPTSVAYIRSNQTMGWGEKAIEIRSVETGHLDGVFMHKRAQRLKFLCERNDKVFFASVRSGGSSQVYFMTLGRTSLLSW
Sequence of Transporter, Norepinephrine (NET) (P23975 whole entry): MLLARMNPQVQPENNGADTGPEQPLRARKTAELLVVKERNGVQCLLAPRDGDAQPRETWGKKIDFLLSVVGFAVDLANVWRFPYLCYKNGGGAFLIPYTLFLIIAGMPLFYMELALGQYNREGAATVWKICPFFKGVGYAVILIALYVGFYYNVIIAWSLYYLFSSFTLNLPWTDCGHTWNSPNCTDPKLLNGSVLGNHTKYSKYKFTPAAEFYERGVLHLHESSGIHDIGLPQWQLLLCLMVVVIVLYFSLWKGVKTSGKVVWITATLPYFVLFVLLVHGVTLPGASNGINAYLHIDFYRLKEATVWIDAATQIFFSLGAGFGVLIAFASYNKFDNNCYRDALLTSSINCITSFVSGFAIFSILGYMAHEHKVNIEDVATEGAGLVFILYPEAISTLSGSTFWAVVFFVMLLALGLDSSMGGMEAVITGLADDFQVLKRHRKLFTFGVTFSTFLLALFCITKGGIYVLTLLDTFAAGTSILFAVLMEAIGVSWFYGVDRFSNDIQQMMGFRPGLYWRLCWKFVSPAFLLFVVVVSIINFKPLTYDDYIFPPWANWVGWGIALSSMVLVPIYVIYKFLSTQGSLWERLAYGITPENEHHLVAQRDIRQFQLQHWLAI
Sequence of Potassium Channel [KATP] (Q09427 whole entry): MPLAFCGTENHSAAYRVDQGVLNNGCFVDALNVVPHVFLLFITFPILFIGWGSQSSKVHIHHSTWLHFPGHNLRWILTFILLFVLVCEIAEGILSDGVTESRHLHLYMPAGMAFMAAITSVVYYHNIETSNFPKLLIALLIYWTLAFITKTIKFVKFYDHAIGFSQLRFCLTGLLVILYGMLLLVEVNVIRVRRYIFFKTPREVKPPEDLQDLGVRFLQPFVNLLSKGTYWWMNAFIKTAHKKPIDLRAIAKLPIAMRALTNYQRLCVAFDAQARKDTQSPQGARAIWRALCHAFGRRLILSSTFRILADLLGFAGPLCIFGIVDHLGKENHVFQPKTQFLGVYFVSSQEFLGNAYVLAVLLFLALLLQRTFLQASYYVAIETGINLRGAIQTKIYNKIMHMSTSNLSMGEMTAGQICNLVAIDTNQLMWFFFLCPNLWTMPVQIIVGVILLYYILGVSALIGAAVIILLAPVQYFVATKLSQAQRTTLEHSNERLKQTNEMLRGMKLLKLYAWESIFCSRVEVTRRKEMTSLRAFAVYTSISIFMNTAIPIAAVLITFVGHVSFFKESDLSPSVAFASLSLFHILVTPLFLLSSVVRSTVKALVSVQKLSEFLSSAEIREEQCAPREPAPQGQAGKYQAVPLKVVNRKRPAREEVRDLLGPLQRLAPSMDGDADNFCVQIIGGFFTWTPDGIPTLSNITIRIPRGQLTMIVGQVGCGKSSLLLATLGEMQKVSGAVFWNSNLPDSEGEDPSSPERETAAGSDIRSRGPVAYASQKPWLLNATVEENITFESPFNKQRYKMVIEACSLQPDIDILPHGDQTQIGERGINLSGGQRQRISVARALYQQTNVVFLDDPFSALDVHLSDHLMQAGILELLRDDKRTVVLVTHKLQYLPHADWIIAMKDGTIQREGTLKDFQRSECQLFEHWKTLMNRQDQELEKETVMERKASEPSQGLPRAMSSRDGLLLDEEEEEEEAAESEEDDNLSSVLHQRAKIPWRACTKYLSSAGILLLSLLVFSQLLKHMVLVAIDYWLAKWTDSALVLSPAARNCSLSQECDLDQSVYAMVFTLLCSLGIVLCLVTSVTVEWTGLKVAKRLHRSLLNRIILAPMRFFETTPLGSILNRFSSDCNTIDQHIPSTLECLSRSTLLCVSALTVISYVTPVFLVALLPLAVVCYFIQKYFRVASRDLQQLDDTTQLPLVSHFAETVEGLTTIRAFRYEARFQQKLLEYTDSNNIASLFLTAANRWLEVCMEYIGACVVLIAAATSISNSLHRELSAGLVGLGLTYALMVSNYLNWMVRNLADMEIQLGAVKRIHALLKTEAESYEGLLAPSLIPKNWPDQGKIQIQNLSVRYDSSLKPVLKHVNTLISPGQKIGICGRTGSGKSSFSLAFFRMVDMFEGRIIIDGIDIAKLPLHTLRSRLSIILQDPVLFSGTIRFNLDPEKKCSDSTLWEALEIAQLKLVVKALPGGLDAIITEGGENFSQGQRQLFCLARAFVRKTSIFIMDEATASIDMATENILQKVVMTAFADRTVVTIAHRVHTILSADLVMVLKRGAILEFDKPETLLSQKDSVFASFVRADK
Sequence of IGF-1R(h), activated (P08069 31-1367): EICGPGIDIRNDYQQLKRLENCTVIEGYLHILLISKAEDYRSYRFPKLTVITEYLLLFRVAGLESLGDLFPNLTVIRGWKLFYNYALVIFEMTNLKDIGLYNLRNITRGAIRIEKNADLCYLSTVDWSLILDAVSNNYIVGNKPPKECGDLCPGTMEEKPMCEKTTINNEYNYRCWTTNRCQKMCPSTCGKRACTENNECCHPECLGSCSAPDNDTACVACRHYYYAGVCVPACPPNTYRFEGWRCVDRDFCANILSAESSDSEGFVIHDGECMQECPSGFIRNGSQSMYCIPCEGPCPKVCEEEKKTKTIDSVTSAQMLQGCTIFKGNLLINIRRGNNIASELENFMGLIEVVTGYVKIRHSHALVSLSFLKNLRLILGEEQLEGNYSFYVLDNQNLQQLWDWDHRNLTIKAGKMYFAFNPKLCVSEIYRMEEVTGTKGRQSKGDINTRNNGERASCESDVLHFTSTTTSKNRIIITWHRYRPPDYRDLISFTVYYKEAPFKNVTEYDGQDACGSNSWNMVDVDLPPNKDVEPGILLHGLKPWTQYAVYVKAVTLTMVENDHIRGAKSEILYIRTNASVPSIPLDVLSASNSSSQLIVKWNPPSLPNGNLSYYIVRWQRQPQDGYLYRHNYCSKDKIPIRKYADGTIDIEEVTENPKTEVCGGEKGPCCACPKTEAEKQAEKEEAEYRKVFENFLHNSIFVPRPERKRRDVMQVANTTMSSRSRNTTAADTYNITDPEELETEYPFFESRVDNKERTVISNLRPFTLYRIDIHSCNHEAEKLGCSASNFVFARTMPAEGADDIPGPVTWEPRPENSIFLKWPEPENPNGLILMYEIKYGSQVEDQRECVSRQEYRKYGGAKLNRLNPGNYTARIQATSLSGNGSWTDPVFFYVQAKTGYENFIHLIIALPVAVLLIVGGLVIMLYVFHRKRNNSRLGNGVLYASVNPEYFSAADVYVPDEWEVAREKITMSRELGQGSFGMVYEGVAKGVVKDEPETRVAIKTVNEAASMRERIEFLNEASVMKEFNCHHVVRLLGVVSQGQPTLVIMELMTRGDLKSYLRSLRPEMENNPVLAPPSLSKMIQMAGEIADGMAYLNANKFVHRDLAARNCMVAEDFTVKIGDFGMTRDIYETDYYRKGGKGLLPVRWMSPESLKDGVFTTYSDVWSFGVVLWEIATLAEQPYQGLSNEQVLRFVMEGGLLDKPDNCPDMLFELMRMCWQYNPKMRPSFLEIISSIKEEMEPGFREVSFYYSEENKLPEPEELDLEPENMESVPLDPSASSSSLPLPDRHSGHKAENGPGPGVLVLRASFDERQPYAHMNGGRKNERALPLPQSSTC

## COc1ccc(OC)c(NS(=O)(=O)c2ccc(NC(=O)CCSc3ccc(C)cc3)cc2)c1 [Compound A41]
[1]
  biological parameters incl. weight: None of the parameters measured, including the weight of the mice, was affected
  deaths: No deaths
  visual inspection (suffering, behavior): no sign of suffering or abnormal behavior
MKK6(h)
  Activity(%): 90%
MAP4K4(h)
  Activity(%): 107%
[2]
  % inh.: 36%
Potassium Channel [KATP]
  % inh.: 11%
NIH/3T3 cell adhesion
  cell adhesion: efficiently inhibited both functions
CT26 cells
  animal survival: improvement in animal survival
  development of pulmonary metastases: significantly reduced the development of pulmonary metastases
4T1 tumor cells; 4 weeks post resection
  frequency of primary tumor re-growth (mice with regrowth): 40%
  survival rate: 80%
4T1 tumor cells; after primary tumor resection
  metastasis frequency: significantly reduced metastasis frequency
TLK1(h)
  Activity(%): 102%
IGF-1R(h), activated
  Activity(%): 108%
WNK2(h)
  Activity(%): 90%

Reference: paper PMC12281424, “A Rac-specific competitive inhibitor of guanine nucleotide binding reduces metastasis in triple-negative breast cancer” (Cell Reports Medicine, 2025)
